Reference: patent publication US11464770B2, “Anticancer pharmaceutical composition” (NATIONAL CANCER CENTER, priority 2016, dated 2022)
Like-named read-outs stand apart in the source and are kept apart here.

Legend:
neuroblastoma cell lines = assay: Cell based assay, cell viability (CellTiter-Glo), neuroblastoma cell lines; conditions: Homo sapiens; SH-SY5Y cell line
Summary of the method: (§1)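 Each commercial line was plated and allowed 24 h to settle at constant temperature. Compound exposure ran 72 h at final concentrations spanning 0 to 2 μM. Cell viability was then determined by luminescent ATP detection.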

[1] = tested on: bladder cancer cell lines; assay: Cell based assay, cell viability (CellTiter-Glo), bladder cancer cell lines
Summary of the method: as §1

[2] = 253J cells, 72 hours treatment, 0 to 2 μM, CellTiter-Glo, read-out: IC50, bladder cancer cell line 253J
[3] = 5637 cells, 72 hours treatment, 0 to 2 μM, CellTiter-Glo, read-out: IC50, bladder cancer cell line 5637
[4] = Homo sapiens, T-24, T24 cells, 72 hours treatment, 0 to 2 μM, CellTiter-Glo, read-out: IC50, bladder cancer cell line T24
[5] = Homo sapiens, J82 cells, 72 hours treatment, 0 to 2 μM, CellTiter-Glo, read-out: IC50, bladder cancer cell line J82

Row | SMILES | IC50 (neuroblastoma cell lines) | IC50 [1, 2] | IC50 [1, 3] | IC50 [1, 4] | IC50 [1, 5] | IC50 ([1]; 253J cells, 72 hours, cell viability (CellTiter-Glo), read-out: IC50, 253J bladder cancer cell line) | IC50 ([1]; 5637 cells, 72 hours, cell viability (CellTiter-Glo), read-out: IC50, 5637 bladder cancer cell line) | IC50 ([1]; Homo sapiens, T-24, T24 cells, 72 hours, cell viability (CellTiter-Glo), read-out: IC50, T24 bladder cancer cell line) | IC50 ([1]; Homo sapiens, J82 cells, 72 hours, cell viability (CellTiter-Glo), read-out: IC50, J82 bladder cancer cell line)
1 | COCCNc1ccc(C[S+]([O-])c2[nH]c3c(Br)ccc(Cl)c3c(=O)c2C(C)=O)cn1 (stereo not drawn) [Compound 105, 3-acetyl-8-bromo-5-chloro-2-(((6-((2-methoxyethyl)amino)pyridin-3-yl)methyl)sulfinyl)quinolin-4(1H)-one] | > 2000 nM | > 2000 nM | > 2000 nM | > 2000 nM | > 2000 nM |  |  |  | 
2 | CC(=O)c1c([S+]([O-])Cc2nonc2C)[nH]c2c(Br)ccc(Cl)c2c1=O (stereo not drawn) [Compound 106, 3-acetyl-8-bromo-5-chloro-2-(((4-methyl-1,2,5-oxadiazol-3-yl)methyl)sulfinyl)quinolin-4(1H)-one] | 1290 nM | > 2000 nM | > 2000 nM | > 2000 nM | > 2000 nM |  |  |  | 
3 | CC(=O)c1c([S+]([O-])Cc2cnc3[nH]ccc3c2)[nH]c2c(Br)ccc(Cl)c2c1=O (stereo not drawn) [Compound 107, 2-(((1H-pyrrolo[2,3-b]pyridin-5-yl)methyl)sulfinyl)-3-acetyl-8-bromo-5-chloroquinolin-4(1H)-one] | > 2000 nM |  |  |  |  | > 2000 nM | > 2000 nM | > 2000 nM | > 2000 nM

Compounds with a lower IC50 (neuroblastoma cell lines), results first:

Row | IC50 (neuroblastoma cell lines) | IC50 [1, 2] | IC50 [1, 3] | IC50 [1, 4] | IC50 [1, 5] | IC50 ([1]; 253J cells, 72 hours, cell viability (CellTiter-Glo), read-out: IC50, 253J bladder cancer cell line) | IC50 ([1]; 5637 cells, 72 hours, cell viability (CellTiter-Glo), read-out: IC50, 5637 bladder cancer cell line) | IC50 ([1]; Homo sapiens, T-24, T24 cells, 72 hours, cell viability (CellTiter-Glo), read-out: IC50, T24 bladder cancer cell line) | IC50 ([1]; Homo sapiens, J82 cells, 72 hours, cell viability (CellTiter-Glo), read-out: IC50, J82 bladder cancer cell line) | SMILES
4 | 1010 nM | > 2000 nM | > 2000 nM | > 2000 nM | > 2000 nM |  |  |  |  | CC(=O)c1c([S+]([O-])Cc2ccc(NS(C)(=O)=O)cc2)[nH]c2c(Br)ccc(Cl)c2c1=O (stereo not drawn) [Compound 103, N-(4-(((3-acetyl-8-bromo-5-chloro-4-oxo-1,4-dihydroquinolin-2-yl)sulfinyl)methyl)phenyl)methane-sulfonamide]
5 | 600 nM |  | > 2000 nM | 1030 nM | > 2000 nM |  |  |  |  | CC(=O)c1c([S+]([O-])Cc2ccc(Cl)nc2)[nH]c2c(Br)ccc(Cl)c2c1=O (stereo not drawn) [Compound 104, 3-acetyl-8-bromo-5-chloro-2-(((6-chloropyridin-3-yl)methyl)sulfinyl)quinolin-4(1H)-one]
